Holding throughout (type): in vivo
For experiment [1], the system named is MPTP-induced parkinsonism. As to the kind of experiment: Antiparkinson activity in mice after single administration of MPTP (locomotor activity, TruScan). The following applies: for general movement activity (number of movement acts) / movement activity / movement distance / movement speed / number of explored holes / number of rearings / time of exploratory activity: single MPTP 30 mg/kg i.p., 1.5 h after MPTP, 3 min; for antiparkinson activity (in words): mice, single administration of MPTP, doses 10 and/or 20 mg/kg per os as stated in the sentence. On the procedure: (§1) Parkinsonism was induced by single and multiple intraperitoneal administration of MPTP in 30 mg/kg doses in male mice of C57B1/6 strain and Wistar rats.
(§2) Antiparkinson activity of the agents was studied by the degree of hypokinesia and locomotor activity using Truscan apparatus (USA) or by mortality percentage.
Experiments were carried out in male mice of C57B1/6 strain in groups of 10 mice each. Parkinson syndrome was induced by intraperitoneal administration of 30 mg/kg dose of MPTP, saline was administered to intact control group. The agent was administered per os 15 minutes after the reproduction of Parkinson syndrome. Hypokinesia was evaluated 1.5 hours after MPTP injection by the degree of locomotor activity using TruScan apparatus (USA) during 3 minutes.
Experiments were carried out in male mice of C57B1/6 strain in groups of 10 mice each. Parkinson syndrome was induced by intraperitoneal administration of 30 mg/kg dose of MPTP, saline was administered to intact control group. The agents in 20 mg/kg doses were administered per os 15 minutes after the reproduction of Parkinson syndrome. Hypokinesia was evaluated 1.5 hours after MPTP injection by the degree of locomotor activity using TruScan apparatus (USA) during 3 minutes.
Experiments were carried out in male mice of C57B1/6 strain in groups of 10 mice each. Parkinson syndrome was induced by intraperitoneal administration of 30 mg/kg dose of MPTP, saline was administered to intact control group. The agent in 10 mg/kg and 20 mg/kg doses were administered per os 15 minutes after the reproduction of Parkinson syndrome. Hypokinesia was evaluated 1.5 hours after MPTP injection by the degree of locomotor activity using TruScan apparatus (USA) during 3 minutes.

The test system of experiment [2] is MPTP-induced parkinsonism. As to the kind of experiment: Antiparkinson activity in mice after 3 days administration of MPTP (locomotor activity, TruScan). The note with it: for general movement activity (number of movement acts) / movement activity / movement distance / movement speed / number of explored holes / number of rearings / time of exploratory activity: 3 min. On the procedure:
as §1, §2
Experiments were carried out in male mice of C57B1/6 strain in groups of 10 mice each. Parkinson syndrome was induced by intraperitoneal administration of 30 mg/kg dose of MPTP during 3 days. The agent ((1R,2R,6S)-1a was administered per os in 20 mg/kg and 30 mg/kg doses 24 hours after the last MPTP injection. Hypokinesia was evaluated 1 hour after the agent administration by the degree of locomotor activity using TruScan apparatus (USA) during 3 minutes.
Experiments were carried out in male mice of C57B1/6 strain in groups of 10 mice each. Parkinson syndrome was induced by intraperitoneal administration of 30 mg/kg dose of MPTP daily during 3 days. Agent (1R,2R,6S)-1b with ee 60% in 20 mg/kg dose was administered per os 24 hours after the last MPTP injection. Hypokinesia was evaluated 1.5 hours after MPTP injection by the degree of locomotor activity using TruScan apparatus (USA) during 3 minutes.

Experiment [3] deals with MPTP-induced parkinsonism. As to the kind of experiment: Antiparkinson activity in mice in 10 days administration of MPTP and the agent (mortality). The note with it: for Mortality, %: C57B1/6 mice, MPTP 30 mg/kg i.p. daily 10 days, day 11. On the procedure: as §2
Experiments were carried out in male mice of C57B1/6 strain in groups of 10 mice each. Parkinson syndrome was induced by intraperitoneal administration of 30 mg/kg dose of MPTP daily during 10 days. The agent ((1R,2R,6S)-1a in 20 mg/kg dose and levodopa (the drug of comparison) in 10 mg/kg dose were administered per os 4 hours after MPTP injection daily during 10 days. The effect was evaluated by the number of surviving animals on the 11 day of the experiment.

For experiment [4], the system named is MPTP-induced parkinsonism. As to the kind of experiment: Antiparkinson activity in rats in 30 days administration of MPTP and the agent (locomotor activity, TruScan). The following applies: for general movement activity (number of movement acts) / movement activity / movement distance / movement speed / number of explored holes / number of rearings / time of exploratory activity: Wistar rats, MPTP 30 mg/kg (table; text 40 mg/kg) i.p. daily 30 days, day 30, 3 min. On the procedure: as §1, §2
Experiments were carried out in male Wistar rats in groups of 10 mice each. Parkinson syndrome was induced by intraperitoneal administration of 40 mg/kg dose of MPTP daily during 30 days. Saline was administered to intact control group. The agent ((1R,2R,6S)-1a in 20 mg/kg dose and levodopa (the drug of comparison) in 10 mg/kg dose were administered per os 4 hours after MPTP injection daily during 30 days. Hypokinesia was evaluated on 30 day of experiment by the degree of locomotor activity using TruScan apparatus (USA) during 3 minutes.

Where [5] appears, read: Table 5: C57B1/6 mice, agents 20 mg/kg per os 15 min after.
[6] abbreviates: Table 6: C57B1/6 mice, agent 10 mg/kg per os 15 min after.
[7] abbreviates: Table 6: C57B1/6 mice, agent 20 mg/kg per os 15 min after.
Where [8] appears, read: Table 7: C57B1/6 mice, MPTP 30 mg/kg i.p. daily 3 days, agent 20 mg/kg per os 24 h after last MPTP.
The mark [9] stands for this setting: C57B1/6 mice, agent 10 mg/kg per os 15 min after.
Setting [10] is: C57B1/6 mice, agent 20 mg/kg per os 15 min after.
The mark [11] stands for this setting: C57B1/6 mice, MPTP 30 mg/kg i.p. 3 days, agent 20 mg/kg per os 24 h after last MPTP, 1 h after agent.
Setting [12] is: C57B1/6 mice, MPTP 30 mg/kg i.p. 3 days, agent 30 mg/kg per os 24 h after last MPTP, 1 h after agent.
Where [13] appears, read: agent 20 mg/kg per os 4 h after MPTP daily.
Setting [14] is: L-DOPA 10 mg/kg per os 4 h after MPTP daily.

With `C=C(C)[C@@H]1CC=C(C)[C@@H](O)[C@@H]1O` [(1R,2R,6S)-1a with ee 94%, (1R,2R,6S)-3-methyl-6-(1-methylethenyl)cyclohex-3-ene-1,2-diol], in experiment [1] (setting [5]), the “general movement activity (number of movement acts)” value (“general movement activity” below) worked out at 78.6 ± 5.0, the movement activity is 64.0 ± 5.5 s, the movement distance amounted to 332.6 ± 39.6 cm and the movement speed worked out at 2.7 ± 0.3 cm/s. Also, in experiment [1] (setting [5]), the “number of explored holes” value was determined as 3.2 ± 0.9, the number of rearings stood at 13.1 ± 2.5 and the “time of exploratory activity” value was 1.5 ± 0.4 s.

For the compound `C=C(C)[C@@H]1CC=C(C)[C@@H](O)[C@@H]1O` [(1R,2R,6S)-1b with ee 60%, diacetate (1R,2R,6S)-3-methyl-6-(1-methylethenyl)cyclohex-3-ene-1,2-diol], in experiment [1] (setting [6]), the “general movement activity” value is listed as 69.9 ± 6.7, the movement activity came out at 51.5 ± 7.5 s, the movement distance amounted to 244.4 ± 4.5 cm and the movement speed was 2.0 ± 0.4 cm/s. Also, in experiment [1] (setting [6]), the “number of explored holes” value was 3.4 ± 1.1, the number of rearings turned out to be 6.4 ± 1.6 and the “time of exploratory activity” value amounted to 1.3 ± 0.5 s. Further, in experiment [1] (setting [7]), the “general movement activity” value was 84.8 ± 4.4, the movement activity came to 58.8 ± 4.5 s, the movement speed stood at 1.9 ± 0.4 cm/s and the “number of explored holes” value came out at 3.2 ± 0.5. Further, in experiment [1] (setting [7]), the number of rearings was determined as 10.8 ± 1.7 and the “time of exploratory activity” value was determined as 2.0 ± 0.3 s. In experiment [2] (setting [8]), the “general movement activity” value was determined as 83.9 ± 3.5, the movement activity was 64.1 ± 5.0 s, the movement distance was 310.0 ± 35.6 cm and the movement speed was 2.5 ± 0.3 cm/s. Moreover, in experiment [2] (setting [8]), the “number of explored holes” value came to 6.0 ± 1.0, the number of rearings is listed as 10.4 ± 1.5 and the “time of exploratory activity” value amounted to 3.2 ± 0.8 s. Besides, in experiment [2] (mice, 3 days administration of MPTP, doses 20 (and 30) mg/kg per os as stated in the sentence), the “antiparkinson activity (in words)” value was “remarkable antiparkinson activity”.

With `C=C(C)[C@H]1CC=C(C)[C@H](O)[C@H]1O` [(1S,2S,6R)-1a with ee 97%, (1S,2S,6R)-3-methyl-6-(1-methylethenyl)cyclohex-3-ene-1,2-diol], in experiment [1] (setting [5]), the “general movement activity” value is given as 57.9 ± 6.0, the movement activity worked out at 34.9 ± 4.3 s, the movement distance was 147.8 ± 20.3 cm and the movement speed is 1.13 ± 0.15 cm/s. Besides, in experiment [1] (setting [5]), the “number of explored holes” value is listed as 2.5 ± 0.9, the number of rearings was determined as 4.4 ± 1.4 and the “time of exploratory activity” value worked out at 1.2 ± 0.6 s. Besides, the “antiparkinson activity (in words)” value in experiment [1] is “remarkable antiparkinson activity”.

As for `C=C(C)[C@@H]1CC=C(C)[C@@H](O)[C@@H]1O` [(1R,2R,6S)-1a with ee 60%, (1R,2R,6S)-3-methyl-6-(1-methylethenyl)cyclohex-3-ene-1,2-diol], the “general movement activity” value amounted to 77.2 ± 5 in experiment [1] (setting [9]); 80.7 ± 4 in experiment [1] (setting [10]); 81.9 ± 3.7 in experiment [2] (setting [11]); 81.8 ± 2.6 in experiment [2] (setting [12]); 81.89 ± 5.5 in experiment [4] (setting [13]). For the same compound, the movement activity in experiment [1] (setting [9]) was determined as 57 ± 5.3 s; in experiment [1] (setting [10]), 59 ± 4 s; in experiment [2] (setting [11]), 70.1 ± 3.9 s; in experiment [2] (setting [12]), 66.8 ± 3.7 s; in experiment [4] (setting [13]) it was 62.56 ± 5.2 s. For the same compound, the movement distance in experiment [1] (setting [9]) is 257.3 ± 29.5 cm; in experiment [1] (setting [10]), 276.5 ± 24 cm; in experiment [2] (setting [11]) it was 351.8 ± 26.4 cm; in experiment [2] (setting [12]), 335.5 ± 28.9 cm; in experiment [4] (setting [13]), 305.58 ± 30.38 cm. Further, the movement speed came out at 2.1 ± 0.25 cm/s in experiment [1] (setting [9]); 2.25 ± 0.2 cm/s in experiment [1] (setting [10]); 2.9 ± 0.2 cm/s in experiment [2] (setting [11]); 2.7 ± 0.2 cm/s in experiment [2] (setting [12]); 2.5 ± 0.25 cm/s in experiment [4] (setting [13]). Further, the “number of explored holes” value in experiment [1] (setting [9]) amounted to 7.7 ± 1.07; in experiment [1] (setting [10]), 7.6 ± 1.7; in experiment [2] (setting [11]), 8.8 ± 1.0; in experiment [2] (setting [12]), 3.8 ± 0.6; in experiment [4] (setting [13]), 4.3 ± 0.73. Also, the number of rearings in experiment [1] (setting [9]) is 5.8 ± 0.6; in experiment [1] (setting [10]), 8.5 ± 2; in experiment [2] (setting [11]) it was 11.1 ± 0.9; in experiment [2] (setting [12]), 13 ± 1.7; in experiment [4] (setting [13]) it was 10.67 ± 1.18. Also, the “time of exploratory activity” value in experiment [1] (setting [9]) is 3.6 ± 0.7 s; in experiment [1] (setting [10]), 4.4 ± 1 s; in experiment [2] (setting [11]), 3.9 ± 0.5 s; in experiment [2] (setting [12]) it was 1.6 ± 0.3 s; in experiment [4] (setting [13]), 1.75 ± 0.5 s. The “antiparkinson activity (in words)” value in experiment [1] was “remarkable antiparkinson activity”; in experiment [4] (rats, 20 mg/kg, 30 days administration of MPTP and the agent), “remarkable antiparkinson activity”. Also, in experiment [3] (setting [13]), the “Mortality, %” value is listed as 10%. The “effect on mortality (in words)” value in experiment [3] (mice, 20 mg/kg, 10 days of administration of the agents and MPTP) is reported as “considerably reduces mortality”. Also, the “comparison with levodopa (in words)” value in experiment [3] (mice, mortality test, agent 20 mg/kg vs levodopa 10 mg/kg) is “as good as the drug of comparison levodopa”; in experiment [4] (rats, 30 days, agent 20 mg/kg vs levodopa 10 mg/kg), “as good as the drug of comparison levodopa”.

As to `N[C@@H](Cc1ccc(O)c(O)c1)C(=O)O` [L-DOPA, reference compound], the “Mortality, %” value in experiment [3] (setting [14]) worked out at 20%. In experiment [4] (setting [14]), the “general movement activity” value is 86 ± 3.86, the movement activity was determined as 65.09 ± 2.92 s, the movement distance was found to be 316.77 ± 16.2 cm and the movement speed came to 2.57 ± 0.13 cm/s. In experiment [4] (setting [14]), the “number of explored holes” value is listed as 4.63 ± 0.56, the number of rearings worked out at 9.63 ± 1.16 and the “time of exploratory activity” value is 1.66 ± 0.25 s.

These data come from patent publication US8809391B2, “Agent for treating Parkinson's disease” (OOO “Tomskaya Farmatsevticheskaya Fabrika”, priority 2009, dated 2014).
